Laboratory results as given in patent US20070104714A1, “Composition and method for the treatment of cancer and other physiologic conditins based on modulation of the ppar-gamma pathway and her-kinase axis” (CEDARS-SINAI MEDICAL CENTER, priority 2003, published 2007).

Experiments:
PPARγ1 = experiment: PPARγ protein (Western blot) and mRNA (RT-PCR) in treated prostate cancer xenografts; format: in vivo, nude mice; conditions: for PPARγ protein by immunoblot in xenograft lysates of combination study: 22 days of treatment
Description: Total RNA was extracted from prostate tumors or the LNCaP cell line using the TRIZOL reagent (obtained from Invitrogen Corp.; San Diego, Calif.). Samples were heated at 95° C. for 3 minutes and snap-cooled before proceeding with DNase I treatment to prevent RNA/DNA hybridization. DNase I (obtained from Ambion; Austin, Tex.) was used to remove any genomic DNA that might interfere with the reaction. Samples were treated with DNase I for 1 hour at 37° C. The RNA yield was quantified spectrometrically.
Total RNA was reverse-transcribed (RT) into cDNA and polymerase chain reaction (PCR) was performed in the same reaction using a real-time TAQman One-Step RT-PCR Master Mix Reagents Kit (obtained from Applied Biosystems; Foster City, Calif.). The sequences of the primer/probe sets used for this analysis are as follows. F and R are the forward and reverse primers, respectively, and P is the fluorescent-labeled probe.
The real-time one step RT-PCR cycling conditions for all primer sets were as follows: 30 min at 48° C. for RT step; 10 min at 95° C. for […] Gold Activation; and 40 cycles for cDNA denaturing (95° C., 15 s), and annealing/elongation (60° C. for 1 min) steps. PCR reactions for each template were done in triplicate using 1 μg of total RNA per sample. Each gene-specific primer pair was tested on standard 384-well plates. Standard curves were constructed using 10-1000 ng of total RNA prepared from the CWRSA6 tumor line.
The comparative CT method (Perkin Elmer Applied Biosystems; Foster City, Calif.) was used to determine relative quantification of gene expression for each gene compared with the β-actin control. First, the CT values from the β-actin reactions were averaged for each triplicate. Next, the CT values from the gene-of-interest reactions were averaged. The gene-of-interest average was […] the β-actin average to take into account the variability of total RNA.
(§1) Immunoblots were performed as described in Towbin H., “Electrophoretic Transfer of Proteins from Polyacrylamide Gels to Nitrocellulose Sheets: Procedure and Some Applications,” Proc. Natl. Acad. Sci. USA, Vol. 76, No. 9 p. 4350-4354 (1979) using aliquots of tumor lysates (100 μg per lane) or lysates from LNCaP cells (100 μg per lane). Protein concentration was determined with a Bradford Assay (obtained from Bio-Rad Inc.; Hercules, Calif.). The lysates were separated on 10% SDS polyacrylamide gels and transferred onto nitrocellulose filters. […]

[1] = Toxicity and weight loss in xenograft-bearing treated animals; format: in vivo, nude mice; conditions: for Lethal toxicity or significant weight loss: combination study, CWRSA6, R-etodolac 200 mg/kg daily, 2C4 20 mg/kg 2X/wk, three weeks
PPARγ = biological target: T1, PPARγ (Homo sapiens, UniProt P37231); experiment: PPARγ reporter (AOx)3-TK-Luc transient transfection luciferase assay in RAW 267.4 cells; format: cell-based; conditions: for PPRE-driven reporter gene expression / PPARγ transactivation: varying concentrations, with recombinant PPARγ
T1 construct: expressed in transfected cells; host or cells: RAW 267.4 mouse macrophages
T1 sequence (P37231 1-505): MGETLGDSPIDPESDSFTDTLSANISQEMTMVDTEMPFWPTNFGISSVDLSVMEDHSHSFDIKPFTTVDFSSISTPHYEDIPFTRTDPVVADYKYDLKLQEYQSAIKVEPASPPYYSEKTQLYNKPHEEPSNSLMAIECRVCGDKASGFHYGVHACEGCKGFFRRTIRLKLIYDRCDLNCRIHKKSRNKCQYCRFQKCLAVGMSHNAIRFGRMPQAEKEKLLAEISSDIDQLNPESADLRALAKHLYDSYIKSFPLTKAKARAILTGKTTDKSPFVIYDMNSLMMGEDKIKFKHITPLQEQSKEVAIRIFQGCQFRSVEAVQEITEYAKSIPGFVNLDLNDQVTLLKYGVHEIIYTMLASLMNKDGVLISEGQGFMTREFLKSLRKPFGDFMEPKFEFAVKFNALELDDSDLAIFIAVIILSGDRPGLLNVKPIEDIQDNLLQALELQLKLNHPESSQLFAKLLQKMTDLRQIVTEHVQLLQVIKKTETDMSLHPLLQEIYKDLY
Description: […] cells were maintained at 37° C. and 5% CO2 in Dulbecco's modified eagle medium (DMEM) with high glucose (obtained from GIBCO; Grand Island, N.Y.) supplemented with 10% fetal bovine serum (FBS), 100 μg/ml penicillin and 100 μg/ml streptomycin.
For transfection, cells were grown in DMEM with 10% FBS for at least 24 hours prior to transfection. Transient transfections were performed in 12-well plates for at least 24 hours prior to transfection. At approximately 50% confluence, cells were transfected using the FuGENE transfection reagent (obtained from Roche Diagnostics GmbH; Mannheim, Germany) according to the manufacturer's instruction with 0.5 μg of reporter plasmid (AOx)3-TK-Luc, 0.1 to 0.2 μg of control plasmid pCMXμgal, 0.1 μg PPARγ expression plasmid and carrier DNA for a total of 1 μg DNA per well. After 16 hours, the cells were washed and fresh medium containing the appropriate amount of drugs, prepared in 0.5% DMSO, was added to the cells for another 24 hours. The cells were treated with either vehicle alone (DMSO), indomethacin, rosiglitazone or varying concentrations of R- or S-etodolac.
For luciferase assays, cells were lysed in potassium phosphate buffer containing 1% TRITON X-100 (obtained from Rohm and Haas Co.; Philadelphia, Pa.) and light emission was detected in the presence of luciferin using a microtiter plate luminometer. Luciferase values were normalized for variations in transfection efficiency using a β-galactosidase internal control. The results are expressed as relative luciferase units (RLU). The luciferase activity values represent the mean of a minimum of three independent transfections performed in triplicate.
The 22Rv1 cells were seeded into 100 mm dishes and allowed to attach for a period of 18 hours. The media was then replaced with phenol red-free and serum-free RPMI 1640, with 100 μg/ml penicillin and 100 μg/ml streptomycin ±R-etodolac for the indicated times. MAP-kinase activation was assessed by Western blot analysis using methods described above. LNCaP cells were treated with R-etodolac at 200, 400, and 600 μM concentrations for 18 Hours. Total protein or RNA was isolated using methods as described previously. Cyclin D1 protein and mRNA expression were assessed by western blot and a real-time quantitative RT-PCR assay as previously described. This transactivation function is mediated only in the presence of recombinant PPARγ.

[2] = tested on: CWRSA6 human prostate cancer xenografts; conditions: 200 mg/kg o.g. daily; p=0.002
cyclooxygenase (COX) = conditions: literature (Adachi et al.; Demerson et al.); cited from earlier work
HER-kinase receptors = experiment: HER-kinase receptor mRNA expression in treated xenografts (RT-PCR); format: in vivo, nude mice; conditions: data not shown
Description: (§2) Total RNA was extracted from prostate tumors or the LNCaP cell line using the TRIZOL reagent (obtained from Invitrogen Corp.; San Diego, Calif.). Samples were heated at 95° C. for 3 minutes and snap-cooled before proceeding with DNase I treatment to prevent RNA/DNA hybridization. DNase I (obtained from Ambion; Austin, Tex.) was used to remove any genomic DNA that might interfere with the reaction. Samples were treated with DNase I for 1 hour at 37° C. The RNA yield was quantified spectrometrically. […]
(§3) The mRNA expression of cyclin D1 (Takayasu, H. et al., “Frequent deletions and mutations of the beta-catenin gene are associated with overexpression of cyclin D1 and fibronectin and poorly differentiated histology in childhood hepatoblastoma,” Clin. Cancer Res., Vol. 7, p. 901-908 (2001)) and the HER-kinase receptors were analyzed using primer sets as described in Agus, D. B. et al, “Targeting ligand activated ErbB2 signaling inhibits breast and prostate tumor growth,” Cancer Cell, Vol. 2, p. […]
(§4) The comparative CT method (Perkin Elmer Applied Biosystems; Foster City, Calif.) was used to determine relative quantification of gene expression for each gene compared with the β-actin control. […]

NIH3T3-PPARγ cells = experiment: Neutral lipid accumulation (Oil Red O) in NIH3T3 cells expressing recombinant PPARγ; format: cell-based, mouse
Description: Third, PPARγ is accepted as a master regulator of adipocyte differentiation. […] NIH3T3 cells that stably overexpress retrovirally expressed recombinant PPARγ were obtained from Dr. Ronald Evans (Salk Institute, La Jolla, Calif.). […] NIH3T3 cells stably expressing recombinant PPARγ (obtained from Dr. Ronald Evans of the Jonas Salk Institute; San Diego, Calif.) were maintained in DMEM supplemented with 10% BCS, 100 μg/ml penicillin and 100 μg/ml streptomycin (obtained from GIBCO; Grand Island, N.Y.). The cells were treated for seven days with the indicated compounds and concentrations and stained for neutral lipids with Oil Red O as described by Green and Kehinde (“Sublines of mouse 3T3 cells that accumulate lipid,” Cell, Vol. 1, p. 113-116 (1974)).

[3] = tested on: cyclin D1 expression in LNCaP cells; experiment: Cyclin D1 mRNA (RT-PCR) and protein (Western blot) expression in LNCaP cells; format: cell-based, human
Description: as §2, §3, §4
The 22Rv1 cells were seeded into 100 mm dishes and allowed to attach for a period of 18 hours. […] MAP-kinase activation was assessed by Western blot analysis using methods described above. […]

[4] = tested on: phospho-MAP kinase in 22Rv1 cells; experiment: Phospho-MAP kinase activation Western blot in 22Rv1 prostate cancer cells; format: cell-based, human; conditions: 500 μM, within 20 minutes of addition, then sustained
Description: as §1
The 22Rv1 cells were seeded into 100 mm dishes and allowed to attach for a period of 18 hours. […] MAP-kinase activation was assessed by Western blot analysis using methods described above. […] Cyclin D1 protein and mRNA expression were assessed by western blot and a real-time quantitative RT-PCR assay as previously described. […]

[5] = tested on: LuCaP-35 human prostate cancer xenografts; experiment: Tumor growth of androgen-dependent LuCaP-35 prostate cancer xenografts in nude mice; format: in vivo; conditions: 200 mg/kg o.g. daily; p=0.0103
[6] = tested on: phospho-p44/42 MAP kinase; experiment: Phospho-MAP kinase (p44/42) Western blot in CWRSA6 xenografts, time course; format: in vivo, nude mice
Description: Immunoblots were performed as described in Towbin H., “Electrophoretic Transfer of Proteins from Polyacrylamide Gels to Nitrocellulose Sheets: Procedure and Some Applications,” Proc. Natl. Acad. Sci. USA, Vol. 76, No. 9 p. 4350-4354 (1979) using aliquots of tumor lysates (100 μg per lane) or lysates from LNCaP cells (100 μg per lane). Protein concentration was determined with a Bradford Assay (obtained from Bio-Rad Inc.; Hercules, Calif.). The lysates were separated on 10% SDS polyacrylamide gels and transferred onto nitrocellulose filters. The membranes were incubated overnight at 4° C. with antibodies against PPARγ (Sc-7273 obtained from Santa Cruz Inc.; Santa Cruz, Calif.), ERK1 (Sc-94 obtained from Santa Cruz Inc.; Santa Cruz, Calif.), and phospho-p44/42 MAP kinase (9101S obtained from Cell Signal; Beverly, Mass.), and cyclin D1 (554180 obtained from BD Pharmingen; San Diego, Calif.) in parallel with anti-β-actin antibodies (A2066 obtained from Sigma; St. Louis, Mo.) and washed well before incubating with the appropriate α-mouse or α-rabbit secondary antibody conjugated with horseradish peroxidase (obtained from Amersham Biosciences, UK).

[7] = tested on: CD36 expression in THP-1 cells; experiment: TPA-induced CD36 scavenger receptor expression in THP-1 cells by flow cytometry; format: cell-based, human; conditions: 200 μM, TPA 40 ng/ml
Description: Prostate carcinoma cell lines, 22Rv1 and LNCaP, and human acute monocytic leukemia (THP-1) cells were obtained from the American Type Culture Collection (Rockville, Md.) and maintained in RPMI 1640 medium supplemented with 10% FBS, 100 μg/ml penicillin and 100 μg/ml streptomycin (obtained from GIBCO; Grand Island, N.Y.). […] Second, the combination of PPARγ transactivation, together with protein kinase C activation by a phorbol ester, has been reported to induce the scavenger receptor CD36 in macrophages (Han and […], 2002). CD36 is documented as a PPARγ-regulated gene (Tontonoz et al., 1998). […] THP-1 cells were treated for 5 days with 200 μM etodolac (racemic mixture) and 20 μM troglitazone in the presence or absence of 40 ng/ml phorbol ester (TPA) for 48 hours. Cells were fixed and stained with unconjugated anti-CD36 and FITC conjugated anti-IgG and analyzed by flow cytometry. A population of 10,000 viable cells was analyzed for each treatment.

2C4: Recombinant humanized HER-2 specific monoclonal antibody that inhibits ligand-induced heterodimerization of ErbB2
PPARγ protein by immunoblot in xenograft lysates of combination study (PPARγ1; CWRSA6 xenografts): expressed PPARγ
Lethal toxicity or significant weight loss [1]: no lethal toxicity or significant weight loss

CCc1cccc2c3c([nH]c12)[C@@](CC)(CC(=O)O)OCC3 [R-etodolac]
Transactivation of PPARγ reporter (fold-induction of luciferase expression) (PPARγ; 100 μM, relative to no drug control, 24 hours): 13 fold
PPRE-driven reporter gene expression / PPARγ transactivation (PPARγ): enhances reporter gene expression in a dose dependent manner
Tumor growth inhibition relative to control-treated animals [2]: 66%
COX inhibitory activity (cyclooxygenase (COX)): lacks COX inhibitory activity
mRNA expression of the HER-kinase receptors (HER-kinase receptors): did not alter
Accumulation of neutral lipids and morphological changes (Oil Red O) (NIH3T3-PPARγ cells; 1 μM, seven days): displayed accumulation of neutral lipids
Lipid uptake (Oil Red O) (NIH3T3-PPARγ cells; 500 μM, seven days): significantly more pronounced
Lipid uptake in NIH3T3 cells transfected with the empty retroviral vector (NIH3T3-PPARγ cells; empty vector control cells, data not shown): did not demonstrate the lipid uptake
Cyclin D1 protein expression ([3]; 18 hours, 200, 400 and 600 μM): downregulation
Cyclin D1 mRNA expression ([3]; 18 hours, 200 and 400 μM): downregulation
Phospho-MAP kinase activation [4]: transient peak
Tumor growth inhibition relative to control-treated animals [5]: 46%
PPARγ protein in tumors vs vehicle treated control (PPARγ1; CWRSA6 and LuCaP-35 xenografts, two to three weeks of treatment, 200 mg/kg): completely eliminated
PPARγ receptor level in time course experiment (PPARγ1; CWRSA6 xenografts, 24 to 72 hours post treatment): upregulation of the PPARγ receptor in the majority of the animals
PPARγ protein by immunoblot in xenograft lysates of combination study (PPARγ1; CWRSA6 xenografts): complete ablation
Lethal toxicity or weight loss (greater than 10% body weight) ([1]; 200 mg/kg o.g. daily, single agent study): no lethal toxicity or weight loss
Lethal toxicity or significant weight loss [1]: no lethal toxicity or significant weight loss
Phosphorylated p44/42 levels ([6]; 24 hours post treatment, 200 mg/kg): sharp increase
Total MAP kinase expression ([6]; time course): No difference
MAP kinase activation, rest of time course ([6]; up to 72 hours): low level of sustained activation
CD36 expression as downstream indicator of PPARγ activation [7]: equivalent potency

CCc1cccc2c3c([nH]c12)[C@](CC)(CC(=O)O)OCC3 [S-etodolac]
PPRE-driven reporter gene expression / PPARγ transactivation (PPARγ): can also transactivate PPARγ but to significantly lower levels

COc1ccc2c(c1)c(CC(=O)O)c(C)n2C(=O)c1ccc(Cl)cc1 [indomethacin]
PPARγ transactivation compared with 100 μM R-etodolac (PPARγ; 10 μM): comparable
